Test results from publication PMC12645083, “Microwave‐Enhanced Synthesis of 2‐Styrylquinoline‐4‐Carboxamides With Promising Anti‐Lymphoma Activity” (Archiv Der Pharmazie, 2025).

Key:
Test in all cases: In vitro antiproliferative activity, resazurin cell viability
Assay type in all cases: cell-based
[1] = test system: RPMI-8402; conditions: Homo sapiens, T-lymphoblastic leukemia cells, 72 h of treatment, mean ± SEM
Procedure: (§1) To test the newly synthesized compounds, various human cell lines were employed. HD‐MB03 cells were purchased from DSMZ (Braunschweig, Germany), while A549, MDA‐MB‐231, RPMI‐8420, SU‐DHL‐8, TOLEDO, VL51, SU‐DHL‐1, SU‐DHL‐18, and KM‐H2 were obtained from ATCC (Manassas, VA, USA). Cells were cultured in DMEM (for MDA‐MB‐231 and A549) or RPMI‐1640 (for RPMI‐8420, SU‐DHL‐8, TOLEDO, VL51, SU‐DHL‐1, SU‐DHL‐18, KM‐H2, and HD‐MB03) media (Gibco, Milan, Italy). Both media were supplemented with 115 units/mL penicillin G (Gibco, Milan, Italy), 115 µg/mL streptomycin (Invitrogen, Milan, Italy), and 10% fetal bovine serum (Invitrogen, Milan, Italy). Peripheral blood mononuclear cells (PBMCs) were isolated from healthy donors as previously described. For cytotoxicity assays, PBMCs were resuspended at 5 × 10⁵ cells/mL in complete RPMI medium with or without 2.5 µg/mL phytohemagglutinin (PHA) (Irvine Scientific) to stimulate T‐cell activation and proliferation. All cell lines were maintained at 37°C in a humidified atmosphere containing 5% CO₂. All compounds were dissolved in DMSO at a 10 mM stock concentration. For dose–response assays, cells were seeded in 96‐well plates at densities optimized for each cell line: HD‐MB03 at 10,000 cells/well, A549 at 4000 cells/well, and MDA‐MB‐231 at 7000 cells/well. All other cell lines were seeded at 20,000 cells/well in a final volume of 100 µL per well. After 24 h, cells were treated with a 6‐point serial dilution of compounds starting from 10 µM, in triplicate for statistical analysis. Seventy‐2 h posttreatment, 10 µL of resazurin solution (100 µg/mL) was added to each well, and cells were incubated for an additional 3–6 h. Fluorescence was measured using a Spark 10 M microplate reader (Tecan Group Ltd., Männedorf, Switzerland) with excitation at 535 nm and emission at 600 nm. The IC₅₀ was defined as the concentration of compound required to inhibit cell proliferation by 50% compared to cells treated with the highest DMSO concentration.
(§2) To test the newly synthesized compounds, various human cell lines were employed. HD-MB03 cells were purchased from DSMZ (Braunschweig, Germany), while A549, MDA-MB-231, RPMI-8420, SU-DHL-8, TOLEDO, VL51, SU-DHL-1, SU-DHL-18, and KM-H2 were obtained from ATCC (Manassas, VA, USA). Cells were cultured in DMEM (for MDA-MB-231 and A549) or RPMI-1640 (for RPMI-8420, SU-DHL-8, TOLEDO, VL51, SU-DHL-1, SU-DHL-18, KM-H2, and HD-MB03) media (Gibco, Milan, Italy). Both media were supplemented with 115 units/mL penicillin G (Gibco, Milan, Italy), 115 µg/mL streptomycin (Invitrogen, Milan, Italy), and 10% fetal bovine serum (Invitrogen, Milan, Italy). Peripheral blood mononuclear cells (PBMCs) were isolated from healthy donors as previously described. ^[1] For cytotoxicity assays, PBMCs were resuspended at 5 × 10⁵ cells/mL in complete RPMI medium with or without 2.5 µg/mL phytohemagglutinin (PHA) (Irvine Scientific) to stimulate T cell activation and proliferation. All cell lines were maintained at 37 °C in a humidified atmosphere containing 5% CO₂. All compounds were dissolved in DMSO at a 10 mM stock concentration. For dose–response assays, cells were seeded in 96-well plates at densities optimized for each cell line: HD-MB03 at 10,000 cells/well, A549 at 4,000 cells/well, and MDA-MB-231 at 7,000 cells/well. All other cell lines were seeded at 20,000 cells/well in a final volume of 100 µL per well. After 24 hours, cells were treated with a 6-point serial dilution of compounds starting from 10 µM, in triplicate for statistical analysis. Seventy-two hours post-treatment, 10 µL of resazurin solution (100 µg/mL) was added to each well, and cells were incubated for an additional 3–6 hours. Fluorescence was measured using a Spark 10M microplate reader (Tecan Group Ltd., Männedorf, Switzerland) with excitation at 535 nm and emission at 600 nm. […]

[2] = test system: A549; conditions: Homo sapiens, non-small cell lung cancer, 72 h of treatment, mean ± SEM
Procedure: as §1, §2

[3] = test system: HD-MB03; conditions: Homo sapiens, medulloblastoma cells, 72 h of treatment, mean ± SEM, at least three experiments
Procedure: as §1, §2

[4] = test system: MDA-MB-231; conditions: Homo sapiens, triple-negative breast cancer, 72 h of treatment, mean ± SEM
Procedure: as §1, §2

[5] = test system: SU-DHL-8; conditions: Homo sapiens, B lymphocyte, large cell lymphoma, 72 h of treatment, mean ± SEM
Procedure: as §1, §2

Row | Compound | IC50 [1] [µM] | IC50 [2] [µM] | IC50 [3] [µM] | IC50 [4] [µM] | IC50 [5] [µM]
1 | O=C(Nc1ccc(C(F)(F)F)cc1)c1cc(/C=C/c2ccc(Br)cc2)nc2ccccc12 [4aa, (E)-2-(4-bromostyryl)-N-(4-(trifluoromethyl)phenyl)quinoline-4-carboxamide] | > 10 | > 10 | > 10 | > 10 | > 10
2 | COc1cc(/C=C/c2cc(C(=O)Nc3ccc(C)cc3)c3ccccc3n2)cc(OC)c1OC [4m, (E)-N-(p-tolyl)-2-(3,4,5-trimethoxystyryl)quinoline-4-carboxamide] | > 10 | > 10 | > 10 | > 10 | > 10
3 | COc1cc(/C=C/c2cc(C(=O)Nc3cccc(C)c3)c3ccccc3n2)cc(OC)c1OC [4l, (E)-N-(m-tolyl)-2-(3,4,5-trimethoxystyryl)quinoline-4-carboxamide] | 3.75 ± 0.18 | 9.34 ± 0.18 | > 10 | 5.95 ± 0.66 | 2.94 ± 0.08
4 | O=C(Nc1ccc([N+](=O)[O-])c(C(F)(F)F)c1)c1cc(/C=C/c2ccc(Cl)c(Cl)c2)nc2ccccc12 [4x, (E)-2-(3,4-dichlorostyryl)-N-(4-nitro-3-(trifluoromethyl)phenyl)quinoline-4-carboxamide] | > 10 | > 10 | > 10 | > 10 | > 10
5 | Cc1cccc(NC(=O)c2cc(/C=C/c3ccccc3)nc3ccccc23)c1 [4b, (E)-2-styryl-N-(m-tolyl)quinoline-4-carboxamide] | > 10 | > 10 | > 10 | > 10 | 5.05 ± 0.58
6 | COc1cc(/C=C/c2cc(C(=O)Nc3cccc(Cl)c3)c3ccccc3n2)cc(OC)c1OC [4p, (E)-N-(3-chlorophenyl)-2-(3,4,5-trimethoxystyryl)quinoline-4-carboxamide] | 9.06 ± 0.59 | > 10 | 8.31 ± 0.64 | 5.7 ± 0.1 | 4.46 ± 0.37
7 | COc1cc(/C=C/c2cc(C(=O)Nc3ccc(Cl)cc3)c3ccccc3n2)cc(OC)c1OC [4q, (E)-N-(4-chlorophenyl)-2-(3,4,5-trimethoxystyryl)quinoline-4-carboxamide] | > 10 | > 10 | > 10 | > 10 | 4.61 ± 0.84
8 | O=C(Nc1ccc(C(F)(F)F)cc1)c1cc(/C=C/c2ccccc2[N+](=O)[O-])nc2ccccc12 [4ac, (E)-2-(2-nitrostyryl)-N-(4-(trifluoromethyl)phenyl)quinoline-4-carboxamide] | > 10 | > 10 | > 10 | > 10 | > 10
9 | O=C(Nc1ccc(C(F)(F)F)cc1)c1cc(/C=C/c2cccc([N+](=O)[O-])c2)nc2ccccc12 [4ad, (E)-2-(3-nitrostyryl)-N-(4-(trifluoromethyl)phenyl)quinoline-4-carboxamide] | > 10 | > 10 | > 10 | > 10 | > 10
10 | COc1cc(/C=C/c2cc(C(=O)Nc3ccccc3)c3ccccc3n2)cc(OC)c1OC [4k, (E)-N-phenyl-2-(3,4,5-trimethoxystyryl)quinoline-4-carboxamide] | > 10 | > 10 | > 10 | > 10 | 5.33 ± 0.52
11 | O=C(Nc1ccc(Cl)cc1)c1cc(/C=C/c2ccc(Cl)c(Cl)c2)nc2ccccc12 [4ag, (E)-N-(4-chlorophenyl)-2-(3,4-dichlorostyryl)quinoline-4-carboxamide] | 6.42 ± 0.43 | 7.71 ± 0.56 | 6.93 ± 0.06 | 5.52 ± 0.22 | 3.49 ± 0.11
12 | Cc1ccc(NC(=O)c2cc(/C=C/c3ccccc3)nc3ccccc23)cc1 [4c, (E)-2-styryl-N-(p-tolyl)quinoline-4-carboxamide] | > 10 | > 10 | > 10 | > 10 | > 10
13 | COc1ccc(/C=C/c2cc(C(=O)Nc3ccc(Cl)cc3)c3ccccc3n2)cc1 [4ae, (E)-N-(4-chlorophenyl)-2-(4-methoxystyryl)quinoline-4-carboxamide] | 6.41 ± 1.16 | > 10 | > 10 | > 10 | 4.67 ± 0.14
14 | O=C(Nc1cccc(Cl)c1)c1cc(/C=C/c2ccccc2)nc2ccccc12 [4f, (E)-N-(3-chlorophenyl)-2-styrylquinoline-4-carboxamide] | > 10 | > 10 | > 10 | > 10 | 8.27 ± 0.72
15 | O=C(Nc1ccccc1)c1cc(/C=C/c2ccccc2)nc2ccccc12 [4a, (E)-N-phenyl-2-styrylquinoline-4-carboxamide] | > 10 | > 10 | > 10 | > 10 | > 10
16 | O=C(Nc1ccc(Cl)cc1)c1cc(/C=C/c2ccccc2)nc2ccccc12 [4g, (E)-N-(4-chlorophenyl)-2-styrylquinoline-4-carboxamide] | 6.31 ± 0.36 | > 10 | > 10 | > 10 | 7.8 ± 1.3
17 | COc1ccc(/C=C/c2cc(C(=O)Nc3ccc([N+](=O)[O-])c(C(F)(F)F)c3)c3ccccc3n2)cc1 [4v, (E)-2-(4-methoxystyryl)-N-(4-nitro-3-(trifluoromethyl)phenyl)quinoline-4-carboxamide] | > 10 | > 10 | > 10 | > 10 | > 10
18 | Cc1cccc(C)c1NC(=O)c1cc(/C=C/c2ccccc2)nc2ccccc12 [4d, (E)-N-(2,6-dimethylphenyl)-2-styrylquinoline-4-carboxamide] | > 10 | > 10 | > 10 | 5.6 ± 0.79 | 6.53 ± 1.49
19 | O=C(Nc1ccc(Cl)cc1)c1cc(/C=C/c2ccc(Cl)cc2)nc2ccccc12 [4af, (E)-N-(4-chlorophenyl)-2-(4-chlorostyryl)quinoline-4-carboxamide] | 4.61 ± 0.24 | > 10 | > 10 | > 10 | 4.45 ± 0.53
20 | COc1cc(/C=C/c2cc(C(=O)Nc3cc(OC)c(OC)c(OC)c3)c3ccccc3n2)cc(OC)c1OC [4o, (E)-N-(3,4,5-trimethoxyphenyl)-2-(3,4,5-trimethoxystyryl)quinoline-4-carboxamide] | 4.55 ± 0.42 | > 10 | > 10 | 5.95 ± 0.89 | 2.09 ± 0.14
21 | COc1cc(NC(=O)c2cc(/C=C/c3ccccc3)nc3ccccc23)cc(OC)c1OC [4e, (E)-2-styryl-N-(3,4,5-trimethoxyphenyl)quinoline-4-carboxamide] | > 10 | > 10 | 7.1 ± 1.15 | > 10 | 6.61 ± 0.76
